Like-named read-outs stand apart in the source and are kept apart here.
What was measured:
[1] = system: L. (V.) braziliensis axenic amastigotes; assay: Antileishmanial activity on axenic amastigotes (MTT, 72 h); assay type: cell-based, Leishmania (Viannia) braziliensis
Protocol: In vitro amastigogenesis was performed by transformation from promastigotes at the stationary phase of growth to obtention axenic amastigotes. This process involved altering the culture conditions to Schneider’s medium with a pH of 5.5, supplementing them with 5% FBS, and incubating them at a temperature of 32 °C [17].
Assessment of antileishmanial activity against promastigote and amastigote axenic forms of parasites followed the method described by Rodrigues et al. and involved the following steps: L. (V.) braziliensis parasites were cultured in 96-well plates at a concentration of 1 × 10^6 parasites per well. Each well contained 100 μL of supplemented Schneider medium. Serial concentrations of the test substances, ranging from 50 to 1.56 μmol/L, were prepared. Reference drugs, meglumine antimoniate (20 to 40,000 μmol/L) and amphotericin B (0.031 to 2 μmol/L) were also prepared. These concentrations were used to assess the effects of the test substances in comparison to reference drugs. The plates were incubated in a BOD incubator at 26 °C for 72 h. After the 72 h incubation period, 10 μL of MTT (5 mg/mL) was added to each well. The plates were then incubated for an additional 4 h. At the end of the 4 h incubation, formazan crystals formed by the reduction of the MTT salt were solubilized by adding 50 μL of a 10% (w/v) sodium dodecyl sulfate (SDS) solution in distilled water. Absorbance was measured using a microplate reader at a wavelength of 540 nm (Biosystems ELx800 model, Curitiba, PR, Brazil). This measurement quantified the metabolic activity of the parasites, which is indicative of their viability and proliferation. Schneider medium containing 0.2% DMSO was used as a negative control in the tests.

nitric oxide (NO) = assay: Nitric oxide synthesis induction (Griess) in infected macrophages; assay type: cell-based, murine; settings: supernatant of RAW 264.7 macrophages infected with L. (V.) braziliensis
Protocol: To evaluate the induction of nitric oxide (NO) synthesis, the following procedure was conducted: In 96-well plates, 100 μL of the supernatants obtained from the macrophage infection assays by L. (V.) braziliensis were placed. An equal volume of Griess® reagent (obtained from Sigma-Aldrich, St. Louis, MO, USA) was added to each well. In parallel, the same procedure was carried out using known concentrations of sodium nitrite (NaNO2, obtained from Vertec Química Fina, Duque de Caxias, RJ, Brazil) ranging from 125 to 2 μmol/L, which were prepared in RPMI medium. This was performedto generate a standard curve. The plates were then incubated at room temperature for 10 min. Subsequently, the absorbance of the samples was measured in a plate reader at a wavelength of 545 nm. The concentration of nitrite in the supernatants was determined by interpolating the absorbance values onto the standard curve.

right atrium = assay: Chronotropic effect on isolated right atrium; design: species or system guinea pig; settings: for effect on heart rate (chronotropic): isolated guinea pig heart muscle preparation, up to 100 µmol/L
Protocol: (§1) Guinea pigs of either sex weighing between 250 or 380 g were utilized in this study. The animals were housed in a controlled environment in an air-conditioned room, maintaining a temperature of 22 to 24 °C and a relative humidity of 50% to 60%. A 12 h light–dark cycle was maintained.
(§2) On the day of the experiments, the animals were euthanized via cervical dislocation. The heart, aorta, pulmonary artery, and ileum were surgically removed and immersed in Krebs–Henseleit solution, with the following composition: NaCl 144.9 mM, KCl 4.73 mM, CaCl2 3.2 mM, MgSO4 1.18 mM, NaHCO3 24.9 mM, KH2PO4 1.18 mM, and glucose 10 mM, with the pH maintained at 7.2–7.4. This solution was continuously aerated with a mixture of 95% O2 and 5% CO2.
(§3) Papillary muscles were isolated from the right ventricle of the heart and meticulously cleared of Purkinje fibers to prevent spontaneous activity. To ensure adequate oxygen supply, only muscles with a diameter less than 0.87 mm were used. The right atrium was also dissected for assessment of chronotropic activity. Both the aorta and pulmonary artery were cleaned and cut into 5 mm rings, while the ileum was sectioned into pieces measuring 1 to 2 cm.
(§4) One end of the dissected tissues was securely tied with silver wire for attachment to a tissue holder, while the other end was connected to a force transducer (Transbridge™, 4-Channel Transducer Amplifier, World Precision Instruments, Sarasota, FL, USA). For contractile measurements, the terminal ileum was stimulated with 60 mM KCl, and the pulmonary artery and aorta rings were exposed to a 90 mM KCl solution. Papillary muscles were electrically stimulated using an Anapulse Stimulator Model 301-T and an Isolation Unit Model 305-1 (WPI, Hamden, CT, USA) with rectangular pulses of 3 ms duration at a frequency of 1 Hz. The amplitude of the stimulation pulse was maintained at 10% above the threshold level. To optimize contractility, a constant resting tension was applied throughout the experiment: 3.9 mN for papillary muscle, 4.9 mN for terminal ileum, 10.4 mN for the right atrium, and 19.6 mN for aorta and pulmonary artery rings.
(§5) Following a 30 min control period, different concentrations of test compounds were cumulatively added to the bath solution every 45 min until a stable effect was achieved. The responses were recorded using a chart recorder (BD 112 Dual Channel, Kipp &Zonen, PO Box 507, 2624 BC, Delft, Holland) for subsequent evaluation. Stock concentrations of the test compounds were prepared using DMSO. To account for any potential DMSO effect, control experiments were conducted with the solvent alone, and the observed effects were subtracted from the responses elicited by the test compounds.

terminal ileum = assay: Spasmolytic effect on terminal ileum (KCl contraction); settings: guinea pig terminal ilea, KCl-induced contraction
Protocol: as §1, §2, §3, §4, §5

[2] = system: L. (L.) amazonensis promastigotes; design: method as in PMID 30913526; settings: read-out: IC50 antipromastigote activity; cited from earlier work
[3] = system: L. (L.) infantum promastigotes; design: method as in PMID 36977142; settings: read-out: IC50 antipromastigote activity; cited from earlier work

spasmolytic effect / contraction force in the terminal ileum (terminal ileum) | SMILES | EC50 [1] | EC50 ([1]; Leishmania braziliensis) | NO level (nitric oxide (NO)) | effect on heart rate (chronotropic) (right atrium) | IC50 [2] | EC50 (right atrium; Cavia porcellus, isolated guinea pig right atrium, 3 to 100 µmol/L, read-out: EC50 reduction of heart rate activity) | IC50 [3]
decrease in contraction force | O=C(/N=C(/NCc1ccccc1)Nc1ccc([N+](=O)[O-])cc1)c1ccccc1 [LQOF-G1, (Z)-N-benzoyl-N-benzyl-N-(4-nitrophenyl)guanidine] | 4.3 ± 0.2 µM | 4.27 µM | increased | slight decrease in heart rate | 11.5 µM |  | 
decrease in contraction force | O=C(/N=C(/NCc1ccccc1)Nc1ccc(Br)cc1)c1ccccc1 [LQOF-G2, (Z)-N-benzoyl-N-benzyl-N-(4-bromophenyl)guanidine] |  | 5 ± 0.8 µM | increased |  | 19.6 µM | 69 µM | 12.7 µM
 | CC(C)(C)c1ccc(N/C(=N\C(=O)c2ccccc2)NCc2ccccc2)cc1 [LQOF-G6, (Z)-N-benzoyl-N-benzyl-N-(4-tert-butylphenyl)guanidine] |  | 4.3 ± 0.7 µM | increased |  | 25.9 µM |  | 24.4 µM
decrease in contraction force | O=C(/N=C(/NCc1ccccc1)Nc1ccc(I)cc1)c1ccccc1 [LQOF-G7, (Z)-N-benzoyl-N-benzyl-N-(4-iodophenyl)guanidine] |  | 6.1 µM |  | slight decrease in heart rate | 15.9 µM |  | 23.6 µM
decrease in contraction force | O=C(/N=C(/NCc1ccc(Cl)cc1Cl)Nc1ccc(Br)cc1)c1ccccc1 [LQOF-G32, (Z)-N-benzoyl-N-(2,4-di-chlorobenzyl)-N-(4-bromophenyl)guanidine] |  |  |  | slight decrease in heart rate |  |  | 

— PMC10813298, “Evidence of Guanidines Potential against Leishmania (Viannia) braziliensis: Exploring In Vitro Effectiveness, Toxicities and of Innate Immunity Response Effects” (Biomolecules, 2023)
